Tested on: tissue between the subcutaneous fascia of the rat back
Settings: in vivo, sc
Method: Six rats (Wistar/ST female) were anesthetized by intraperitoneal administration of pentobarbital and inhalation of isoflurane, and each of the solutions (physiological saline and a 2% aqueous solution of low-endotoxin sodium alginate AL2) was individually injected (implanted) in an amount of 1 ml into the tissue between the subcutaneous fascia at a subcutaneous depth of about 1 cm at each of eight sites from the upper back to the lower back, using 1-ml syringe and a 23 G needle. The injection of each solution was performed after randomization. Each needle entry site was sutured with one stitch of 5-0 proline thread.
After 3 weeks, each rat was sacrificed by pentobarbital overdose, and the back implantation sites were cut out and immersion-fixed in a 10% formaldehyde solution. The fixed tissues were subjected to hematoxylin-eosin staining (HE staining) and safranin-O staining (SOFG staining) according to usual methods.
After 12 weeks, HE staining and SOFG staining were performed in the same manner as in Example 1.
Rats in which implantation was performed in the same manner as in Example 4 were subjected to MTC staining, and type I collagen staining in addition to HE staining and SOFG staining. […] MTC staining and type I collagen staining were performed according to usual methods. […]

Q: How did the “retention / residual implanted material at injection site” value turn out when collagen was run?
A: present in an amorphous state at the injection sites
